From article PMC7038240 (Antimicrobial Agents and Chemotherapy, 2020)
Where two headings read alike, the source gives them in different places.

What was measured:
Assay type in all cases: cell-based
M. morgannii = assay: organism not typed; conditions: strain 769909; OXA-48
Text: (§1) The antibacterial activity of cefepime-taniborbactam was compared to that of ceftazidime-avibactam, ceftolozane-tazobactam, and cefepime-tazobactam against a diverse panel of Enterobacterales and P. aeruginosa clinical isolates with defined β-lactamase subtypes (see Table S1 in the supplemental material). IMP-producing strains were excluded, as none of the BLI-protected cephalosporins inhibited IMP sufficiently to provide a clinically relevant rescue of the partner β-lactam, a characteristic also shared by approved BLI-protected carbapenems (meropenem-vaborbactam and imipenem-relebactam). […] The antibacterial activity of the cephalosporins alone was included to ascertain the level of potentiation by the partnered BLI. BLIs were tested at a fixed concentration of 4 μg/ml in all combinations except cefepime-tazobactam, where tazobactam was fixed at a concentration of 8 μg/ml ([38]). The collection comprised 143 clinical isolates collected from 2005 and 2018.
(§2) The in vitro antibacterial activity of the β-lactams alone or in combination with the BLIs was determined in cation-adjusted Mueller-Hinton broth (CAMHB) microdilution assays according to CLSI recommendations ([51]). […]. The inocula for the broth microdilution assays were prepared by the broth culture method ([51]). […]

K. pneumoniae = assay: microbe, parasite or virus in culture
Text: as §1, §2

K. oxytoca = assay: microbe, parasite or virus in culture; conditions: Klebsiella oxytoca
Text: as §1, §2

K. aerogenes = assay: microbe, parasite or virus in culture; conditions: Klebsiella aerogenes
Text: as §1, §2

C. freundii = assay: microbe, parasite or virus in culture; conditions: Citrobacter freundii
Text: as §1, §2

S. paratyphi = assay: microbe, parasite or virus in culture; conditions: Salmonella enterica, strain 527, AmpC/TEM-1
Text: as §1, §2

P. aeruginosa = assay: microbe, parasite or virus in culture
Text: as §1, §2

Work on `CC(C)(O/N=C(\C(=O)N[C@@H]1C(=O)N2C(C(=O)[O-])=C(C[n+]3ccccc3)CS[C@H]12)c1csc(N)n1)C(=O)O` [CAZ] yielded an MIC (M. morgannii) of 2 µg/mL, an MIC (K. pneumoniae) of 64 µg/mL and an MIC (K. pneumoniae; Klebsiella pneumoniae, strain 6299, OXA-163, read-out: MIC) of 128 µg/mL. For the same compound, the MIC (K. pneumoniae; Klebsiella pneumoniae, strain 178279, SHV-12/TEM-1/AmpC, read-out: MIC) was 128 µg/mL, the MIC (K. pneumoniae; Klebsiella pneumoniae, strain 196477, AmpC, read-out: MIC) was ≥ 256 µg/mL and the MIC (K. pneumoniae; Klebsiella pneumoniae, strain 212027, AmpC/FOX-5/TEM-1, read-out: MIC) was 128 µg/mL. For the same compound, the MIC (K. pneumoniae; Klebsiella pneumoniae, strain 515746, OXA-48, read-out: MIC) was 64 µg/mL, the MIC (K. pneumoniae; Klebsiella pneumoniae, strain 664438, OXA-48, read-out: MIC) was 128 µg/mL and the MIC (K. pneumoniae; Klebsiella pneumoniae, strain 664439, OXA-48, read-out: MIC) was 128 µg/mL. The MIC (K. pneumoniae; Klebsiella pneumoniae, strain 722870, OXA-48, read-out: MIC) was 64 µg/mL, the MIC (K. pneumoniae; Klebsiella pneumoniae, strain 752334, OXA-48, read-out: MIC) was 128 µg/mL and the MIC (K. pneumoniae; Klebsiella pneumoniae, strain 769972, OXA-48, read-out: MIC) was 64 µg/mL. For the same compound, the MIC (K. pneumoniae; Klebsiella pneumoniae, strain 787422, OXA-48, read-out: MIC) was 8 µg/mL, the MIC (K. pneumoniae; Klebsiella pneumoniae, strain 856819, SHV-11/VIM-1, read-out: MIC) was ≥ 256 µg/mL and the MIC (K. pneumoniae; Klebsiella pneumoniae, strain 873460, SHV-30/CTX-M-15, read-out: MIC) was 64 µg/mL. For the same compound, the MIC (K. pneumoniae; Klebsiella pneumoniae, strain 874328, SHV-11/CTX-M-15/NDM-1, read-out: MIC) was ≥ 256 µg/mL, the MIC (K. pneumoniae; Klebsiella pneumoniae, strain 882956, SHV-31/DHA-1/VIM-1, read-out: MIC) was ≥ 256 µg/mL and the MIC (K. pneumoniae; Klebsiella pneumoniae, strain 890066, SHV-33/TEM-33/CTX-M-15/IMP-1, read-out: MIC) was ≥ 256 µg/mL. The MIC (K. pneumoniae; Klebsiella pneumoniae, strain 892694, SHV-12/TEM-1/CTX-M-15/OXA-48/ACT, read-out: MIC) was ≥ 256 µg/mL, the MIC (K. pneumoniae; Klebsiella pneumoniae, strain 919877, SHV-OSBL/VIM-1, read-out: MIC) was ≥ 256 µg/mL and the MIC (K. pneumoniae; Klebsiella pneumoniae, strain 1104864, SHV-OSBL(b)/VIM-1, read-out: MIC) was ≥ 256 µg/mL. For the same compound, the MIC (K. pneumoniae; Klebsiella pneumoniae, strain 1104866, SHV-OSBL(b)/VIM-1, read-out: MIC) was ≥ 256 µg/mL, the MIC (K. pneumoniae; Klebsiella pneumoniae, strain 1280442, SHV-OSBL(b)/VIM-1, read-out: MIC) was ≥ 256 µg/mL and the MIC (K. pneumoniae; Klebsiella pneumoniae, strain CDC-0049, NDM, read-out: MIC) was ≥ 256 µg/mL. For the same compound, the MIC (K. pneumoniae; Klebsiella pneumoniae, strain CDC-0139, NDM-1, read-out: MIC) was ≥ 256 µg/mL, the MIC (K. pneumoniae; Klebsiella pneumoniae, strain CDC-0145, NDM, read-out: MIC) was ≥ 256 µg/mL and the MIC (K. pneumoniae; Klebsiella pneumoniae, strain CDC-0148, NDM, read-out: MIC) was ≥ 256 µg/mL. For the same compound, the MIC (K. pneumoniae; Klebsiella pneumoniae, strain CDC-0152, NDM, read-out: MIC) was ≥ 256 µg/mL, the MIC (K. pneumoniae; Klebsiella pneumoniae, strain DOV, OXA-48, read-out: MIC) was 64 µg/mL and the MIC (K. pneumoniae; Klebsiella pneumoniae, strain ESBL8 #1, TEM-1/SHV-12, read-out: MIC) was ≥ 256 µg/mL. The MIC (K. pneumoniae; Klebsiella pneumoniae, strain ESBL 10, SHV-12/TEM-1, read-out: MIC) was 128 µg/mL, the MIC (K. pneumoniae; Klebsiella pneumoniae, strain KIRK, OXA-162, read-out: MIC) was 128 µg/mL and the MIC (K. pneumoniae; Klebsiella pneumoniae, strain SI-C05, OXA-48, read-out: MIC) was 64 µg/mL. The MIC (K. pneumoniae; Klebsiella pneumoniae, strain SI-F100, SHV-5/TEM-1/CMY-2, read-out: MIC) was 32 µg/mL, the MIC (K. oxytoca) was ≥ 256 µg/mL and the MIC (K. oxytoca; strain 134943, CMY-2/TEM-1, read-out: MIC) was 128 µg/mL. The MIC (K. aerogenes; strain 73546, AmpC) was 32 µg/mL, the MIC (K. aerogenes; strain 110099, AmpC/SHV-12) was 128 µg/mL and the MIC (K. aerogenes; strain 111707, AmpC/TEM-1) was 32 µg/mL. For the same compound, the MIC (C. freundii; strain 134390, AmpC/TEM-1) was 16 µg/mL, the MIC (C. freundii; strain 241181, AmpC/TEM-163) was 8 µg/mL and the MIC (S. paratyphi) was 8 µg/mL. The MIC (P. aeruginosa) was 64 µg/mL, the MIC (P. aeruginosa; Pseudomonas aeruginosa, ATCC27853, strain ATCC 27853, W.T., read-out: MIC) was 2 µg/mL and the MIC (P. aeruginosa; Pseudomonas aeruginosa, strain 10.257, PDC-50, read-out: MIC) was ≥ 256 µg/mL. For the same compound, the MIC (P. aeruginosa; Pseudomonas aeruginosa, strain 11.516, PDC-79, read-out: MIC) was 128 µg/mL, the MIC (P. aeruginosa; Pseudomonas aeruginosa, strain 11.698, PDC-87, read-out: MIC) was ≥ 256 µg/mL and the MIC (P. aeruginosa; Pseudomonas aeruginosa, strain 11.813, PDC-91, read-out: MIC) was ≥ 256 µg/mL. For the same compound, the MIC (P. aeruginosa; Pseudomonas aeruginosa, strain 13.1716, PDC-74, read-out: MIC) was ≥ 256 µg/mL, the MIC (P. aeruginosa; Pseudomonas aeruginosa, strain 13.1717, PDC-74, read-out: MIC) was ≥ 256 µg/mL and the MIC (P. aeruginosa; Pseudomonas aeruginosa, strain 13.1737, PDC-80, read-out: MIC) was 128 µg/mL. For the same compound, the MIC (P. aeruginosa; Pseudomonas aeruginosa, strain 13.1755, PDC-86, read-out: MIC) was ≥ 256 µg/mL, the MIC (P. aeruginosa; Pseudomonas aeruginosa, strain 13.1760, PDC-77, read-out: MIC) was ≥ 256 µg/mL and the MIC (P. aeruginosa; Pseudomonas aeruginosa, strain 13.1775, PDC-87, read-out: MIC) was ≥ 256 µg/mL.
